Experimental findings from patent publication US20220175859A1, “Tetraselmis Extract” (SYMRISE AG, priority 2018, published 2022) are described below.

What all share (assay type): cell-based
Data set [1] deals with human sebaceous glands. The experiment in a line: Total lipid content of micro-dissected ex vivo human sebaceous glands (organ culture). To be noted: extract 0.3 ppm, Capsaicin 5 μM (=1.5 ppm), lipids normalized to proteins. The procedure: Organ culture of human sebaceous glands micro-dissected from human skin explants was performed to evaluate the modulatory activity of Tetraselmis suecica extract prepared according to the description given in Example 1 on the sebum level. The extract is employed in the dried form. After removal of the epidermis of the full thickness skin sample, the sebaceous glands were carefully removed using micro-scissors and scalpel. The micro-dissected sebaceous glands were then pooled in groups of 8 and cultured up to day 6 in a 24 well plate immersed in 500 μl of modified Williams' E medium. After 24 hours of acclimation the culture medium was changed and substituted with the medium containing the extract to be tested. The medium was renewed at day 3 and 5 of culture. At day 6 the glands were collected and used for the quantification of lipids and proteins. […] To do so, each sebaceous glands group was homogenized in 100 μl of isopropyl alcohol to extract lipids and let the proteins undissolved. After centrifugation the supernatant containing the extracted sebum was collected and analyzed. The remaining pellet was dried using a vacuum dry evaporator and then minced in presence of 50 μl of protein lysis buffer. After an appropriate incubation time, this extractive mixture was centrifuged, and the supernatant was collected and analyzed. The lipids dissolved in isopropyl alcohol and the proteins dissolved in the lysis buffer were quantified by infrared spectroscopy using a Direct Detect IR Spectrometer (Millipore). The total lipid amount was obtained by normalizing the quantified lipids upon the quantified proteins (i.e. mg of lipids/mg of proteins). The amounts of normalized lipids, i.e. the sebum produced by each group of sebaceous glands, obtained from the treated groups was compared to that of the untreated control group and the modulatory activity was calculated in percentage. […] For statistical analysis, differences among groups were evaluated by one-way anova with permutation test followed by Dunnett's permutation test. […]

The test system of data set [2] is human sebaceous glands. The experiment in a line: Viability test (resazurin) of micro-dissected human sebaceous glands. The procedure: To better understand the response to the extract, a viability test was performed in parallel at day 1 and day 6 of organ culture. Resazurin was added to the wells (1:11) and let incubate for 2 hours. At the end of the incubation an aliquot of the medium was read with a fluorometer (excitation: 560 nm, emission: 590 nm). The medium was then replaced with normal medium for 2 hours in order to eliminate residual resazurin. After this the medium was replaced again with medium containing the test samples. The viability in each well was measured as the difference in percentage between day 6 and day 1.
The same experimental set-up as described in Example 3 was used to evaluate the combination of Tetraselmis suecica extract and niacinamide for synergistic activity.

Data set [3] relates to human sebaceous glands. Put plainly: Synergistic effect of Tetraselmis suecica extract and niacinamide on total lipid content of ex vivo human sebaceous glands (Kull's equation). To be noted: Donor 1 (Example 4); 0.3 ppm extract, 100 ppm niacinamide, or 0.15 ppm extract + 50 ppm niacinamide.
Excerpt: Kull's equation for calculation of the synergism index SI was used:
A=lipid reduction by Tetraselmis suecica extract at concentration x B=lipid reduction by niacinamide at concentration y C=lipid reduction by the combination of Tetraselmis suecica extract at concentration x/2 and niacinamide at concentration y/2 D=Factor for Tetraselmis suecica extract=>0.5 (due to half concentration tested in the combination) E=Factor for niacinamide=>0.5 (due to half concentration tested in the combination) A SI=1 is obtained for additive activity of the two combined components, whereas a SI<1 proves antagonistic activity (observed efficacy is lower than additive) and SI>1 proves synergistic activity (observed efficacy is higher than additive).

As for `COc1cc(CNC(=O)CCCC/C=C/C(C)C)ccc1O` [Capsaicin], the results for the “Reduction of lipids at day 6 versus untreated” value in the data set on human sebaceous glands [1] (Donor 1), with human sebaceous glands [1] (Donor 2) and in the data set with human sebaceous glands [1] (Donor 3) were 11%, 28% and 14%, respectively. In addition, the Viability in the data set on human sebaceous glands [2] (Donor 1, day 6 versus day 1, extract 0.3 ppm, Capsaicin 5 μM (1.5 ppm), untreated 93) was 92%; with human sebaceous glands [2] (Donor 2, day 6 versus day 1, extract 0.3 ppm, Capsaicin 5 μM (1.5 ppm), untreated 100), 99%; with human sebaceous glands [2] (Donor 3, day 6 versus day 1, extract 0.3 ppm, Capsaicin 5 μM (1.5 ppm), untreated 81) it was 85%.

Turning to `NC(=O)c1cccnc1` [niacinamide, Niacinamide], the Viability with human sebaceous glands [2] (Donor 1 (Example 4), 0.3 ppm extract, 100 ppm niacinamide, or 0.15 ppm extract + 50 ppm niacinamide, untreated 81) came out at 78%. The “Reduction of lipids at day 6 versus untreated” value with human sebaceous glands [3] was determined as 6%.
